Source: patent US20170247409A1, “ABIETANE-TYPE DITERPENOIDS” (UNIVERSITY OF HELSINKI, priority 2014, published 2017)
Converted amounts (≈) assume the structure as drawn. “And” between values parts separate entries of the source, which are not always exact repeats. Equal values may be shown once. Read-outs that look alike come from different tables or passages of the source.

Experiments:
[1] = test system: S. aureus ATCC 25923 biofilms; assay: Anti-biofilm viability assay with redox dye, pre- and post-exposure, S. aureus ATCC 25923 biofilms; format: cell-based, Staphylococcus aureus; conditions: for inhibition at 400 µM: ATCC25923; for % inhibition, Post-biofilm formation: at 400 μM, existing biofilms
single-cell bacteria = assay: Antibacterial activity (MIC) against single-cell (planktonic) bacteria; format: cell-based; conditions: Staphylococcus aureus, in the absence of biofilms, strain not stated
Description: We selected six of the active compounds in the post-exposure assays namely, compounds 20, 21, 22, 25, 31 and 32 for the follow-up studies. […] In this mode of the assay, the interaction of the compounds occurs initially with single-cell bacteria (that is, a planktonic solution) before biofilms are formed. Therefore, we tested additionally if the compounds could exert antibacterial activity against single-cell bacteria, in the absence of biofilms. Based solely on conventional MIC and MBC values, antibacterial activities against single-cell bacteria were also high for the derivatives. […] The antibacterial activity order 22>21>25>31>20>32 correlated very well with the measured activity in preventing biofilm formation.

S. aureus Newman = assay: Anti-biofilm potency against S. aureus Newman biofilms; format: cell-based, Staphylococcus aureus
Description: In fact, only 2-3 fold-higher concentrations of the compounds were needed to kill existing biofilms, in comparison to inhibiting bacterial colonization. […] Anti-biofilm potencies were all in the micromolar range and they were particularly significant for compound 22. […] The activity was also confirmed against S. aureus Newman strain. Potency values calculated for the S. aureus Newman (Table 3) were very similar to the values registered for S. aureus ATCC 25923.

S. aureus biofilm = conditions: Fallarero et al, 2013; cited from earlier work
[2] = test system: S. epidermidis ATCC 12228; assay: Anti-biofilm activity against S. epidermidis ATCC 12228; format: cell-based, Staphylococcus epidermidis; conditions: tested at IC50 conc. measured against S. aureus ATCC 25923
Method: (§1) Four of the compounds were also tested against gram-negative E. coli biofilms as well as other Staphylococcal strains, at the corresponding IC50 values measured against S. aureus ATCC 25923 (Table 4). […] Nonetheless, all the compounds presented below were found active against S. epidermidis (ATCC 12228 and ATCC 35984) strains (Table 3).

E. coli XL1 blue = assay: Anti-biofilm activity against E. coli XL1 blue biofilms; format: cell-based, Escherichia coli; conditions: tested at IC50 conc. measured against S. aureus ATCC 25923
Method: as §1

[3] = test system: S. aureus ATCC 25923 biofilms; assay: Viable plate counts and Log Reduction of S. aureus ATCC 25923 biofilms; format: cell-based, Staphylococcus aureus; conditions: 400 μM, viable plate counts
Method: The viability of S. aureus (ATCC 25923) biofilms left upon exposure to compounds 20, 21, 22 and 25 was determined using viable plate counts and calculating the Log Reduction (Log R) value. This procedure involves scrapping the biofilms off the substrate, disaggregating them by sonication and plating the resulting suspension in agar. The method is highly laborious but it is the gold standard for the quantification of anti-biofilm efficacy (Pitts et al. 2003). […] Of note, a log R value of 2 represents a reduction of 99% of the viable cells in the biofilms, and typically, a log R of 3 is considered a relevant indicator of the compound efficacy as an anti-biofilm agent.

HL cells = assay: Tolerability of mammalian cells, resazurin viability assay; format: cell-based, human; conditions: concentrations of up to 100 μM; 24 hours exposure
Method: Viability values were measured in acute conditions (24 hours exposure) using the resazurin assay as in Karlsson et al, 2012 (Eur J Pharm Sci. 2012 Aug 30;47(1):190-205). […] The least tolerated molecule was 25, as only 23% (±5.9) of cells remained viable upon exposure to 100 μM. However, concentrations up to 30 μM caused no cytotoxicity (90.2% of viable cells, ±0.5).

[4] = test system: S. epidermidis ATCC 35984; assay: Anti-biofilm activity against S. epidermidis ATCC 35984; format: cell-based, Staphylococcus epidermidis; conditions: tested at IC50 conc. measured against S. aureus ATCC 25923
Method: as §1

[5] = Staphylococcus aureus, post-exposure, S. aureus ATCC 25923, read-out: % Inhibition 400 μM POST
[6] = Staphylococcus aureus, pre-exposure, S. aureus ATCC 25923, read-out: % Inhibition 400 μM PRE
[7] = Staphylococcus aureus, ATCC25923, 50% inhibition of biofilm viability, S. aureus ATCC 25923, read-out: Potency, IC50 Prior-to-biofilm formation
[8] = Staphylococcus aureus, ATCC25923, 50% inhibition of biofilm viability, S. aureus ATCC 25923, value in parentheses, read-out: Potency, IC50 Prior-to-biofilm formation
[9] = Staphylococcus aureus, ATCC25923, 24 h, measured 24 hours after adding to existing biofilms, S. aureus ATCC 25923, read-out: Potency, IC50 Post-biofilm formation
[10] = Staphylococcus aureus, ATCC25923, 24 h, measured 24 hours after adding to existing biofilms, S. aureus ATCC 25923, value in parentheses, read-out: Potency, IC50 Post-biofilm formation
[11] = Staphylococcus aureus, S. aureus Newman, read-out: Potency, IC50 Post-biofilm formation
[12] = Staphylococcus aureus, S. aureus Newman, read-out: Potency, IC50 Prior-to-biofilm formation
[13] = Staphylococcus aureus, S. aureus Newman, value in parentheses, read-out: Potency, IC50 Post-biofilm formation
[14] = Staphylococcus aureus, S. aureus Newman, value in parentheses, read-out: Potency, IC50 Prior-to-biofilm formation

Compound | inhibition at 400 µM [1, 5] | inhibition at 400 µM [1, 6] | MIC (single-cell bacteria) | IC50 [1, 7] | IC50 [1, 8] | IC50 [1, 9] | IC50 [1, 10] | IC50 (S. aureus Newman; [11]) | IC50 (S. aureus Newman; [12]) | IC50 (S. aureus Newman; [13]) | IC50 (S. aureus Newman; [14]) | further results
CC(C)c1ccc2c(c1)CC[C@H]1[C@](C)(C(=O)N[C@H](C(=O)O)C(C)C)CCC[C@]21C [Compound 18, N-(Abiet-8,11,13-trien-18-oyl) L-valine] | 99.2% | 100% | – | – | – | – | – | – | – | – | – | –
CC(C)c1ccc2c(c1)CC[C@H]1[C@](C)(C(=O)N[C@H](Cc3ccccc3)C(=O)O)CCC[C@]21C [Compound 31, N-(Abiet-8,11,13-trien-18-oyl) D-phenylalanine] | 102% | 102% | 31.3 mg/L (≈ 69.9 µM) | 37.4 µM | 16.7 mg/L | 98.2 µM | 44 mg/L | 110 µM | 36.2 µM | 49.4 mg/L | 16.2 mg/L | –
CSCC[C@@H](NC(=O)[C@]1(C)CCC[C@]2(C)c3ccc(C(C)C)cc3CC[C@@H]12)C(=O)O [Compound 23, N-(Abiet-8,11,13-trien-18-oyl) D-methionine] | 92.6% | 102% | – | – | – | – | – | – | – | – | – | –
CC(C)c1ccc2c(c1)CC[C@H]1[C@](C)(CN)CCC[C@]21C [dehydroabietylamine] | – | – | – | – | – | – | – | – | – | – | – | prevention of S. aureus biofilm formation (S. aureus biofilm): low micromolar range
CC(C)C[C@H](NC(=O)[C@]1(C)CCC[C@]2(C)c3ccc(C(C)C)cc3CC[C@@H]12)C(=O)O [Compound 20, N-(Abiet-8,11,13-trien-18-oyl) L-leucine] | 99.8% | 100% | 33.1 mg/L (≈ 80 µM) | 62.2 µM | 25.7 mg/L | 121 µM | 50.2 mg/L | 134 µM | 51.8 µM | 55.6 mg/L | 21.4 mg/L | Inhibition percentage (±SD) Post-biofilm formation [2]: 12.9 (±5.1) %; Inhibition percentage (±SD) Prior-to-biofilm formation [2]: 62.4 (±2.2) %; Inhibition percentage (±SD) Post-biofilm formation (E. coli XL1 blue): 39.9 (±4.6) %; Inhibition percentage (±SD) Prior-to-biofilm formation (E. coli XL1 blue): 14.2 (±4.5) %; Log Reduction (average ±SD) [3]: 3.9 (±0.4); cytotoxicity in HL cells (HL cells): did not cause statistically significant cytotoxicity; Inhibition percentage (±SD) Post-biofilm formation [4]: −12 (±6.0) %; Inhibition percentage (±SD) Prior-to-biofilm formation [4]: 53.4 (±4.9) %
CC(C)c1ccc2c(c1)CC[C@H]1[C@](C)(C(=O)O)CCC[C@]21C [dehydroabietic acid] | – | – | – | – | – | – | – | – | – | – | – | prevention of S. aureus biofilm formation (S. aureus biofilm): low micromolar range
CC(C)c1ccc2c(c1)C(=O)C[C@H]1[C@](C)(C(=O)N[C@@H](CC3CCCCC3)C(=O)O)CCC[C@]21C [Compound 32, N-(7-Oxoabiet-8,11,13-trien-18-oyl) Cyclohexyl-L-alanine] | 102% | 102% | 46.8 mg/L (≈ 100 µM) | 60.6 µM | 28.3 mg/L | 145 µM | 67.9 mg/L | 93.1 µM | 63.5 µM | 43.5 mg/L | 29.7 mg/L | –
nordehydroabietylamine | – | – | – | – | – | – | – | – | – | – | – | prevention of S. aureus biofilm formation (S. aureus biofilm): low micromolar range
CC[C@H](NC(=O)[C@]1(C)CCC[C@]2(C)c3ccc(C(C)C)cc3CC[C@@H]12)C(=O)O [Compound 19, N-(abiet-8,11,13-trien-18-oyl) Ethyl-L-glycine] | 98.9% | 99.8% | – | – | – | – | – | – | – | – | – | –
CC(C)c1ccc2c(c1)CC[C@H]1[C@](C)(C(=O)N[C@H](Cc3ccc(O)cc3)C(=O)O)CCC[C@]21C [Compound 24, N-(Abiet-8,11,13-trien-18-oyl) D-tyrosine] | 26.3% | 102% | – | – | – | – | – | – | – | – | – | –
CC1(C)S[C@@H]2[C@H](NC(=O)Cc3ccccc3)C(=O)N2[C@H]1C(=O)O [Penicillin G, reference compound] | – | – | – | – | – | – | – | – | – | – | – | Log Reduction (average ±SD) [3]: 1.0 (±0.1); IC50 ([1]; 50% inhibition of biofilm viability, S. aureus ATCC 25923, read-out: Potency, IC50 Prior-to-biofilm formation): 0.13 µM; Potency, IC50 Prior-to-biofilm formation ([1]; 50% inhibition of biofilm viability, S. aureus ATCC 25923, value in parentheses): 0.048 mg/L (≈ 0.144 µM); % inhibition, Post-biofilm formation ([1]; S. aureus ATCC 25923): 57% inhibition at 400 μM; IC50 (S. aureus Newman; S. aureus Newman, read-out: Potency, IC50 Prior-to-biofilm formation): 0.27 µM; Potency, IC50 Prior-to-biofilm formation (S. aureus Newman; S. aureus Newman, value in parentheses): 0.090 mg/L (≈ 0.269 µM); % inhibition, Post-biofilm formation (S. aureus Newman; at 400 μM, S. aureus Newman): 73% inhibition at 400 μM
CC(C)c1ccc2c(c1)CC[C@H]1[C@](C)(C(=O)N[C@@H](Cc3ccccc3)C(=O)O)CCC[C@]21C [Compound 21, N-(Abiet-8,11,13-trien-18-oyl) L-phenylalanine] | 99.6% | 100% | 22.4 mg/L (≈ 50 µM) | 35.5 µM | 15.9 mg/L | 109 µM | 48.7 mg/L | 83.7 µM | 35.9 µM | 37.5 mg/L | 16.1 mg/L | Inhibition percentage (±SD) Post-biofilm formation [2]: 46.9 (±9.9) %; Inhibition percentage (±SD) Prior-to-biofilm formation [2]: 57.3 (±4.6) %; Inhibition percentage (±SD) Post-biofilm formation (E. coli XL1 blue): 30.4 (±6.1) %; Inhibition percentage (±SD) Prior-to-biofilm formation (E. coli XL1 blue): 7.4 (±2.7) %; Log Reduction (average ±SD) [3]: 4.3 (±0.2); cytotoxicity in HL cells (HL cells): did not cause statistically significant cytotoxicity; Inhibition percentage (±SD) Post-biofilm formation [4]: 44.4 (±8.4) %; Inhibition percentage (±SD) Prior-to-biofilm formation [4]: 58.1 (±4.1) %
CN[C@H](CC(C)C)C(=O)N[C@H]1C(=O)N[C@@H](CC(N)=O)C(=O)N[C@H]2C(=O)N[C@H]3C(=O)N[C@H](C(=O)N[C@H](C(=O)O)c4cc(O)cc(O)c4-c4cc3ccc4O)[C@H](O)c3ccc(c(Cl)c3)Oc3cc2cc(c3O[C@@H]2O[C@H](CO)[C@@H](O)[C@H](O)[C@H]2O[C@H]2C[C@](C)(N)[C@H](O)[C@H](C)O2)Oc2ccc(cc2Cl)[C@H]1O [Vancomycin, reference compound] | – | – | – | – | – | – | – | – | – | – | – | IC50 ([1]; Staphylococcus aureus, ATCC25923, read-out: Potency, IC50 Prior-to-biofilm formation): 710 nM and 1.03 µg/mL; % inhibition, Post-biofilm formation ([1]; S. aureus ATCC 25923): 25% inhibition at 400 μM; inhibition at 400 µM (S. aureus Newman; Staphylococcus aureus, NEWMAN, read-out: % inhibition, Post-biofilm formation): 37.9%; IC50 (S. aureus Newman; Staphylococcus aureus, NEWMAN, read-out: Potency, IC50 Prior-to-biofilm formation): 1.3 µM and 1.88 µg/mL
